Reference: the supplement of paper PMC12592484

Columns and labels:
Assay in all cases: drug sensitivity score (DSS2, normalised partial AUC of dose-response, 72 h CellTiter-Glo viability) (DSS (dimensionless)); higher = more sensitive (stronger growth inhibition / cytotoxicity); extreme values may be limits of the assay
[1] = test system: CAF#3 (primary prostate cancer-associated fibroblasts of myCAF-like type)
Summary of the method: (§1)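 Five doses spanning a 10,000-fold range were pre-dispensed into 384-well plates, into which low-passage primary prostate cancer-associated fibroblasts, PF179T, WPMY-1, LNCaP and 22Rv1 cells were seeded. After 72 h, CellTiter-Glo 2.0 luminescence measured viability, scaled to vehicle and positive-control wells. Higher values of the drug sensitivity score, a BREEZE-computed partial area under the fitted logistic dose–response curve divided by the log of the upper asymptote, mean greater sensitivity.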

[2] = test system: CAF#6 (primary prostate cancer-associated fibroblasts of iCAF-like type)
Summary of the method: as §1

[3] = test system: CAF#7 (primary prostate cancer-associated fibroblasts of myCAF-like type)
Summary of the method: as §1

[4] = test system: CAF#2 (primary prostate cancer-associated fibroblasts of iCAF-like type)
Summary of the method: as §1

[5] = test system: WPMY-1
Summary of the method: as §1

[6] = test system: LNCAP
Summary of the method: as §1

[7] = test system: 22Rv1
Summary of the method: as §1

[8] = test system: CAF#1 (primary prostate cancer-associated fibroblasts of myCAF-like type)
Summary of the method: as §1

[9] = test system: CAF#5 (primary prostate cancer-associated fibroblasts of myCAF-like type)
Summary of the method: as §1

[10] = test system: CAF#4 (primary prostate cancer-associated fibroblasts of iCAF-like type)
Summary of the method: as §1

[11] = test system: PF179T
Summary of the method: as §1

Row | Structure (SMILES) | drug sensitivity score [1] | drug sensitivity score [2] | drug sensitivity score [3] | drug sensitivity score [4] | drug sensitivity score [5] | drug sensitivity score [6] | drug sensitivity score [7] | drug sensitivity score [8] | drug sensitivity score [9] | drug sensitivity score [10] | drug sensitivity score [11]
1 | CC(C)C[C@H](NC(=O)[C@H](CCc1ccccc1)NC(=O)CN1CCOCC1)C(=O)N[C@@H](Cc1ccccc1)C(=O)N[C@@H](CC(C)C)C(=O)[C@@]1(C)CO1 [Carfilzomib] (tested concentration range 0.1-1000 nM) | 17.1 | 15.9 | 16.7 | 18.9 | 31.5 | 27.2 | 27.5 | 17.5 | 22 | 13.3 | 20.3
2 | Cc1ccc(-c2cc(C(F)(F)F)nn2-c2ccc(S(N)(=O)=O)cc2)cc1 [Celecoxib] (tested concentration range 1-10000 nM) | 0 | 0 | 0 | 0 | 0 | 1.2 | 0 | 0 | 0 | 0 | 0
3 | C[C@@H]1COCCN1c1cc(C2([S@](C)(=N)=O)CC2)nc(-c2cc[nH]c3nccc2-3)n1 [Ceralasertib] (tested concentration range 2.5-25000 nM) | 6.7 | 6.2 | 6.3 | 9.3 | 13.9 | 10.7 | 10 | 6.6 | 7.8 | 8 | 8.1
4 | CCS(=O)(=O)N1CCN(c2ccc(Nc3ncc(C(N)=O)c(NC4CC4)n3)cc2)CC1 [Cerdulatinib] (tested concentration range 1-10000 nM) | 0 | 0.4 | 0.1 | 3.7 | 8.8 | 4.4 | 0 | 6.1 | 3.8 | 0 | 2.7
5 | Cc1cc(Nc2ncc(Cl)c(Nc3ccccc3S(=O)(=O)C(C)C)n2)c(OC(C)C)cc1C1CCNCC1 [Ceritinib] (tested concentration range 0.2-2500 nM) | 3 | 1.2 | 2.3 | 5.1 | 1 | 4.2 | 3.1 | 4.6 | 2.6 | 2.4 | 0.9
6 | CCN(CC)CCCC(C)Nc1ccnc2cc(Cl)ccc12 (stereo not given) [Chloroquine] (tested concentration range 10-100000 nM) | 8.4 | 8.2 | 8.6 | 9.8 | 10.4 | 9.8 | 11.2 | 5.7 | 7.4 | 8.6 | 9.5
7 | N.N.[Cl][Pt][Cl] [Cisplatin] (tested concentration range 10-100000 nM) | 5.7 | 4.3 | 4.8 | 18.1 | 16 | 5.6 | 15 | 11.8 | 14.6 | 5 | 11.4
8 | Nc1nc(Cl)nc2c1ncn2[C@H]1C[C@H](O)[C@@H](CO)O1 [Cladribine] (tested concentration range 0.1-1000 nM) | 0.5 | 0 | 0.6 | 2.7 | 5.1 | 5.2 | 1.7 | 0 | 0.1 | 0 | 3.9
9 | Nc1nc(Cl)nc2c1ncn2[C@@H]1O[C@H](CO)[C@@H](O)[C@@H]1F [Clofarabine] (tested concentration range 1-10000 nM) | 5 | 6.1 | 9.3 | 10.6 | 16.9 | 18.5 | 13.9 | 6.5 | 7.3 | 4.6 | 10.6
10 | CCN(CC)CCOc1ccc(C(=C(Cl)c2ccccc2)c2ccccc2)cc1 [Clomifene] (tested concentration range 1-10000 nM) | 4.2 | 4 | 3.7 | 5.8 | 5.5 | 4.8 | 5.7 | 2.3 | 3.7 | 4 | 6
11 | O=C(c1ccc(F)c(F)c1Nc1ccc(I)cc1F)N1CC(O)([C@@H]2CCCCN2)C1 [Cobimetinib] (tested concentration range 0.1-1000 nM) | 0 | 3.3 | 5.3 | 3.9 | 4.2 | 0 | 9.6 | 0.5 | 1.9 | 1.6 | 2.1
12 | COc1c(OCCCN2CCOCC2)ccc2c1N=C(NC(=O)c1cnc(N)nc1)N1CCN=C21 [Copanlisib] (tested concentration range 0.1-1000 nM) | 6 | 7 | 7.5 | 9.8 | 7.7 | 4.7 | 14.1 | 7.7 | 9.9 | 8.7 | 8.8
13 | CC1(COc2ccc3c(c2)ncn3-c2ccc3cccc(N4CCC(N)CC4)c3n2)COC1 [Crenolanib] (tested concentration range 1-10000 nM) | 7.5 | 7 | 3.5 | 7.3 | 7.2 | 4.4 | 4.9 | 8.9 | 9.3 | 3.2 | 4.7
14 | C[C@@H](Oc1cc(-c2cnn(C3CCNCC3)c2)cnc1N)c1c(Cl)ccc(F)c1Cl [Crizotinib] (tested concentration range 0.1-1000 nM) | 2.7 | 2.5 | 0.8 | 1.4 | 0.5 | 0 | 0 | 0 | 1.5 | 0 | 1.4
15 | Nc1ccn([C@@H]2O[C@H](CO)[C@@H](O)[C@@H]2O)c(=O)n1 [Cytarabine] (tested concentration range 1-10000 nM) | 0 | 0.5 | 2.6 | 10 | 7.7 | 11.9 | 14.3 | 1.8 | 1.9 | 5.4 | 12.9
16 | CC(C)(C)c1nc(-c2cccc(NS(=O)(=O)c3c(F)cccc3F)c2F)c(-c2ccnc(N)n2)s1 [Dabrafenib] (tested concentration range 0.2-2500 nM) | 4.5 | 2.6 | 4.1 | 0.2 | 0 | 4.8 | 5.6 | 1.4 | 3.5 | 0 | 2.1
17 | COc1cc2ncnc(Nc3ccc(F)c(Cl)c3)c2cc1NC(=O)/C=C/CN1CCCCC1 [Dacomitinib] (tested concentration range 0.1-1000 nM) | 0.6 | 0 | 0 | 1 | 1 | 1.4 | 1 | 0.7 | 0 | 1.4 | 0.2
18 | Cc1c2oc3c(C)ccc(C(=O)N[C@@H]4C(=O)N[C@H](C(C)C)C(=O)N5CCC[C@H]5C(=O)N(C)CC(=O)N(C)[C@@H](C(C)C)C(=O)O[C@@H]4C)c3nc-2c(C(=O)N[C@@H]2C(=O)N[C@H](C(C)C)C(=O)N3CCC[C@H]3C(=O)N(C)CC(=O)N(C)[C@@H](C(C)C)C(=O)O[C@@H]2C)c(N)c1=O [Dactinomycin] (tested concentration range 0.1-1000 nM) | 23 | 19.8 | 22.6 | 23.2 | 26.5 | 39.3 | 31.8 | 24.7 | 21.1 | 17.2 | 17.2
19 | O=C(/C=C/c1cccnc1)NCCCCC1CCN(C(=O)c2ccccc2)CC1 [Daporinad] (tested concentration range 0.1-1000 nM) | 12.8 | 16.5 | 17.5 | 25.8 | 29.4 | 26.9 | 25.6 | 13.9 | 13.9 | 23.6 | 21.3
20 | CCN(CC)CCN(Cc1ccc(-c2ccc(C(F)(F)F)cc2)cc1)C(=O)Cn1c(SCc2ccc(F)cc2)nc(=O)c2c1CCC2 [Darapladib] (tested concentration range 0.1-1000 nM) | 0.1 | 0 | 0 | 0 | 1.3 | 0 | 3.7 | 0 | 0.7 | 1 | 0
21 | CC(O)c1cc(C(=O)N[C@@H](C)Cn2ccc(-c3ccc(C#N)c(Cl)c3)n2)n[nH]1 (stereo not given in full) [Darolutamide] (tested concentration range 0.2-2500 nM) | 0.1 | 0 | 0 | 2.2 | 0 | 0.1 | 0.6 | 3.1 | 2.9 | 4.4 | 0
22 | Cc1nc(Nc2ncc(C(=O)Nc3c(C)cccc3Cl)s2)cc(N2CCN(CCO)CC2)n1 [Dasatinib] (tested concentration range 0.1-1000 nM) | 13.7 | 13 | 15.3 | 15.5 | 5.3 | 5 | 0 | 13.8 | 15.2 | 10.3 | 11.7
23 | COc1cccc2c1C(=O)c1c(O)c3c(c(O)c1C2=O)C[C@@](O)(C(C)=O)C[C@@H]3O[C@H]1C[C@H](N)[C@H](O)[C@H](C)O1 [Daunorubicin] (tested concentration range 0.1-1000 nM) | 6.4 | 7.9 | 8.4 | 9.4 | 10.7 | 17.5 | 12.9 | 7.3 | 6.6 | 4.2 | 8.6
24 | CC[C@@](C)(Nc1ccnc(-c2c[nH]c3ncccc23)n1)C(=O)NCC(F)(F)F [Decernotinib] (tested concentration range 1-10000 nM) | 0.5 | 0 | 0 | 0.1 | 0.7 | 0 | 0 | 0.2 | 0 | 0 | 0
25 | Nc1ncn([C@H]2C[C@H](O)[C@@H](CO)O2)c(=O)n1 [Decitabine] (tested concentration range 1-10000 nM) | 0.1 | 0.6 | 0 | 0.8 | 0.8 | 0 | 1.1 | 0 | 1.6 | 0 | 1.8
